Where two headings read alike, the source gives them in different places.
Experiments:
volunteers [1] = assay: Oral administration of ex-vivo synthesized J-Factor to 11 volunteers, physical changes observed; conditions: 0.5 mg per 10 days (=1.5 mg/month), observed in each volunteer
Method: (§1) In one of the embodiment of the present invention L-arginine was chemically converted into J-Factor ex-vivo. Thus converted/synthetic produced ex-vivo J-Factor was orally administrated to a small group of 11 volunteers. Each volunteers were given 0.5 mg per 10 days (=1.5 mg/month) and photographs were taken in each case at the beginning and end of the trial to record the changes in their faces and heads.
These changes indicate that ex-vivo synthesized J-Factor functioned like GH and autocrine-paracrine IGF-1 and also stimulated IGF-1 production.

volunteers [2] = assay: Comparison of synthetic J-Factor and biosynthetic GH: complications, diabetogenicity, antigenicity; format: in vivo
Method: as §1
In fact all of the above mentioned changes help in preventing or limiting the aging signs. The advantage of using ex-vivo synthesized J-Factor of the present invention when compared to biosynthetic GH is shown in the comparative table below: […]

volunteers [3] = conditions: biosynthetic GH, intra muscular administration, 3 time a week; stated as common knowledge; cited from earlier work
[4] = comparative table, oral administration 3 times a month, no test described

| Compound | Eye's central vision (volunteers [1]) | Fatty tissue e.g. in abdomen (volunteers [1]) | Hair growth (volunteers [1]) | Muscular hypertrophy (volunteers [1]) | Tone and color of facial skin (volunteers [1]) | Complications (Joint swelling, Carpal tunnel syndrome, Joint pain) (volunteers [2]; 11 volunteers, oral administration, 3 times a month) | Antigenicity (volunteers [2]; [4]) | Diabetogenicity (volunteers [2]; [4]) | Antigenicity (volunteers [3]) | Complications (volunteers [3]) | Diabetogenicity (volunteers [3]) |
| --- | --- | --- | --- | --- | --- | --- | --- | --- | --- | --- | --- |
| NC(N)=NCCC[C@H](N)C(=O)O [J-Factor, L-2-amino-5-diaminomethyleneamino-pentanoic acid] | Improvement in eye's central vision | A decrease in fatty tissue | Hair growth | Muscular hypertrophy | Improved tone and color of facial skin | showed no complications such as Joint | Non-antigenic | Non-diabetogenic |  |  |  |
| Biosynthetic GH: biosynthetic Growth Hormone, comparator in the table |  |  |  |  |  |  |  |  | Antigenic | Joint swelling Carpal tunnel | Diabetogenic |

Source: patent US20100121105A1, “Composition and Method of synthesizing a biomolecule and its therapeutics applications” (priority 2009, published 2010)
